Target: T1, human Edg-1 (S1P1) (Homo sapiens, UniProt P21453)
T1 construct: expressed in transfected cells; host or cells: HEK-293
Experiment: S1P1 binding assay: inhibition of [33P]-S1P binding to membrane fraction of HEK-293 cells transferred with the human Edg-1 (S1P1) gene
Settings: test compound 10 μM; inhibition of [33P]-S1P binding, membrane fraction
Protocol: The membrane fraction was obtained by treating the cells with a solubilizing buffer (1 mM Tris/HCl, pH 7.2) for 10 minutes on ice, centrifuging at 1000×g for 5 minutes to remove insoluble fractions, and then centrifuging at 40000×g for 30 minutes at 4° C. The resulting membrane fraction was dissolved in a binding buffer (20 mM Tris-HCl, pH 7.4, 100 mM NaCl, 15 mM NaF, 2 mM deoxypyridoxine, 4 mg/mL fatty acid-free BSA), and then [^33P]-S1P (manufactured by ARC, final concentration 0.1 nM) and a DMSO solution (final concentration of the compound 10^−5M, final concentration of DMSO 0.1%) of the test compound were added. Thereafter, the mixture was stirred and then treated for one hour at 30° C. Using a harvester, the membrane fraction was harvested onto unifilter-96 GF/C filter (manufactured by Perkin Elmer), washing was carried out four times with the binding buffer, and the filter was dried. Twenty five μL Microscint 0 (manufactured by Perkin Elmer) was added, and radioactivity was measured using Top Count NXT (manufactured by Packard) to calculate the amount (A) of [^33P]-S1P bound to the membrane fraction at the time when the compound was added.
The same procedure was carried out in the absence of the test compound, and the amount (B) of [^33P]-S1P bound was calculated. Further, the same procedure was carried out in the absence of the test compound by use of HEK-293 cells to which no Edg-1 (S1P1) gene was introduced, and the background amount (C) of [^33P]-S1P bound was calculated.
Inhibition rate (%)=[1−(A−C)/(B−C)]×100
Further, concentrations (IC50) at the time when binding in the absence of the test compound was inhibited by 50% were calculated. The membrane system binding assay was carried out in the presence of test compounds with various concentrations, and the Edg-1 (S1P1) binding inhibition rates were calculated using the equation above. Then, IC50 values were calculated using Origin (Lightstone Corp.), a software for data analysis.

T1 sequence (P21453 whole entry): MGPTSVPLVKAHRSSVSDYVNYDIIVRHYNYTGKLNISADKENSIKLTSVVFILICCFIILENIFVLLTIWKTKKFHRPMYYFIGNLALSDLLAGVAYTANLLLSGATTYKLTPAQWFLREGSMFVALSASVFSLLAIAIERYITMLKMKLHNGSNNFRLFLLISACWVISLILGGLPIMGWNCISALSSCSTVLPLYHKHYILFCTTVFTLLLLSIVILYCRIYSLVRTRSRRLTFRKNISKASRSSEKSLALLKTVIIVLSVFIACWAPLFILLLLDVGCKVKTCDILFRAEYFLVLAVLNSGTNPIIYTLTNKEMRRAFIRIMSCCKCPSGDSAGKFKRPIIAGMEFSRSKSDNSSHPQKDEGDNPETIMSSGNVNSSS

First: CCn1c(Oc2ccc3cc[nH]c3c2)nnc1[C@@H](C)NS(=O)(=O)c1ccc(C#N)cc1 [Compound 395]
Second: CCn1c(Oc2ccc3cc[nH]c3c2)nnc1[C@@H](C)NS(=O)(=O)c1cccc(Cl)c1 [Compound 403]
The inhibition at 10 µM of the first is higher: 79.1% for the first, 72.5% for the second.

Going from `CCn1c(Oc2ccc3cc[nH]c3c2)nnc1[C@@H](C)NS(=O)(=O)c1ccc(Cl)cc1Cl` [Compound 398] to `CCn1c(Oc2ccc3cc[nH]c3c2)nnc1[C@@H](C)NS(=O)(=O)c1cc(OC)ccc1OC` [Compound 400], the inhibition at 10 µM falls from 84.7% to 75.3%.

Same assay, conditions: test compound at 10 μM; inhibition of [33P]-S1P binding to the membrane fraction of HEK-293 cells expressing human Edg-1 (S1P1)

Compared with `CCn1c(Oc2ccc(F)cc2)nnc1[C@@H](C)NS(=O)(=O)c1cccc(C(C)=O)c1` [Compound 306], `CCn1c(Oc2ccc(F)cc2)nnc1[C@@H](C)NS(=O)(=O)c1ccc(Cl)c(S(N)(=O)=O)c1` [Compound 314] is lower in inhibition at 10 µM: 60.2% for the first, 52.2% for the second.

Going from `CCn1c(Oc2ccc(F)cc2)nnc1[C@@H](C)NS(=O)(=O)c1ccc(F)c2ccccc12` [Compound 307] to `CCn1c(Oc2ccc(F)cc2)nnc1[C@@H](C)NS(=O)(=O)c1cc2ccccc2s1` [Compound 323], the inhibition at 10 µM falls from 94.4% to 77.9%.

Going from `CCc1ccc(OC)c(S(=O)(=O)N[C@H](C)c2nnc(Oc3ccc(F)cc3)n2CC)c1` [Compound 311] to `CCn1c(Oc2ccc3cc[nH]c3c2)nnc1[C@@H](C)NS(=O)(=O)c1cc(C)ccc1OC` [Compound 393], the inhibition at 10 µM rises from 76.5% to 79.7%.

Compared with `CCn1c(Oc2ccc(F)cc2)nnc1[C@@H](C)NS(=O)(=O)c1ccc(Br)c(C(F)(F)F)c1` [Compound 318], `CCn1c(Oc2ccc(F)cc2)nnc1[C@@H](C)NS(=O)(=O)c1cc(Br)cc(C(F)(F)F)c1` [Compound 319] is lower in inhibition at 10 µM: 78.9% for the first, 61.7% for the second.

Going from `CCn1c(Cc2ccc(F)cc2)nnc1[C@@H](C)NS(=O)(=O)c1csc2ccccc12` [Compound 324] to `CCn1c(Oc2ccc3cc[nH]c3c2)nnc1[C@@H](C)NS(=O)(=O)c1cccc2ccccc12` [Compound 352], the inhibition at 10 µM rises from 81.8% to 88.5%.

First: CCn1c(Oc2ccc3cc[nH]c3c2)nnc1[C@@H](C)NS(=O)(=O)c1ccc(C(C)=O)cc1 [Compound 327]
Second: CCn1c(Oc2ccc3cc[nH]c3c2)nnc1[C@@H](C)NS(=O)(=O)c1ccc(C)cc1 [Compound 359]
The inhibition at 10 µM of the first is lower: 92.3% for the first, 95.7% for the second.

Going from `CCn1c(Oc2ccc3cc[nH]c3c2)nnc1[C@@H](C)NS(=O)(=O)c1ccccc1` [Compound 328] to `CCn1c(Oc2ccc3cc[nH]c3c2)nnc1[C@@H](C)NS(=O)(=O)c1ccccc1Br` [Compound 331], the inhibition at 10 µM falls from 85.2% to 59.8%.

Going from `CCn1c(Oc2ccc3cc[nH]c3c2)nnc1[C@@H](C)NS(=O)(=O)c1ccc(Br)cc1` [Compound 329] to `CCn1c(Oc2ccc3cc[nH]c3c2)nnc1[C@@H](C)NS(=O)(=O)c1ccc(Cl)cc1` [Compound 335], the inhibition at 10 µM rises from 101% to 106%.

Going from `CCn1c(Oc2ccc3cc[nH]c3c2)nnc1[C@@H](C)NS(=O)(=O)c1ccc(C(C)(C)C)cc1` [Compound 330] to `CCn1c(Oc2ccc3cc[nH]c3c2)nnc1[C@@H](C)NS(=O)(=O)c1ccc(F)cc1` [Compound 346], the inhibition at 10 µM rises from 81.6% to 89.2%.

First: CCn1c(Oc2ccc3cc[nH]c3c2)nnc1[C@@H](C)NS(=O)(=O)c1cccc(Br)c1 [Compound 333]
Second: CCn1c(Oc2ccc3cc[nH]c3c2)nnc1[C@@H](C)NS(=O)(=O)c1cccc(C)c1 [Compound 364]
The inhibition at 10 µM of the first is higher: 102% for the first, 87.5% for the second.

Compared with `CCn1c(Oc2ccc3cc[nH]c3c2)nnc1[C@@H](C)NS(=O)(=O)c1ccccc1C#N` [Compound 336], `CCn1c(Oc2ccc3cc[nH]c3c2)nnc1[C@@H](C)NS(=O)(=O)c1ccccc1C` [Compound 361] is higher in inhibition at 10 µM: 56.8% for the first, 96.9% for the second.

Going from `CCn1c(Oc2ccc3cc[nH]c3c2)nnc1[C@@H](C)NS(=O)(=O)c1cccc(C#N)c1` [Compound 338] to `CCn1c(Oc2ccc3cc[nH]c3c2)nnc1[C@@H](C)NS(=O)(=O)c1cccc(OC)c1` [Compound 386], the inhibition at 10 µM rises from 69.2% to 84%.

Compared with `CCn1c(Oc2ccc3cc[nH]c3c2)nnc1[C@@H](C)NS(=O)(=O)c1sc2ccc(Cl)cc2c1C` [Compound 339], `CCn1c(Oc2ccc3cc[nH]c3c2)nnc1[C@@H](C)NS(=O)(=O)c1cc(Cl)ccc1Cl` [Compound 341] is higher in inhibition at 10 µM: 62.8% for the first, 92.8% for the second.

First: CCn1c(Oc2ccc3cc[nH]c3c2)nnc1[C@@H](C)NS(=O)(=O)c1cc(C)c(Cl)cc1C [Compound 340]
Second: CCn1c(Oc2ccc3cc[nH]c3c2)nnc1[C@@H](C)NS(=O)(=O)c1cc(C)ccc1C [Compound 367]
The inhibition at 10 µM of the first is higher: 100% for the first, 94.3% for the second.

Going from `CCn1c(Oc2ccc3cc[nH]c3c2)nnc1[C@@H](C)NS(=O)(=O)c1c(Cl)cccc1Cl` [Compound 342] to `CCn1c(Oc2ccc3cc[nH]c3c2)nnc1[C@@H](C)NS(=O)(=O)c1cccc(Cl)c1Cl` [Compound 379], the inhibition at 10 µM rises from 53.6% to 89.2%.

Going from `CCn1c(Oc2ccc3cc[nH]c3c2)nnc1[C@@H](C)NS(=O)(=O)c1ccc(OC)c(OC)c1` [Compound 343] to `CCn1c(Oc2ccc3cc[nH]c3c2)nnc1[C@@H](C)NS(=O)(=O)c1cc(Br)ccc1OC` [Compound 389], the inhibition at 10 µM rises from 86.5% to 88%.

Going from `CCc1ccc(S(=O)(=O)N[C@H](C)c2nnc(Oc3ccc4cc[nH]c4c3)n2CC)cc1` [Compound 345] to `CCCc1ccc(S(=O)(=O)N[C@H](C)c2nnc(Oc3ccc4cc[nH]c4c3)n2CC)cc1` [Compound 377], the inhibition at 10 µM falls from 90.4% to 73.9%.

Compared with `CCn1c(Oc2ccc3cc[nH]c3c2)nnc1[C@@H](C)NS(=O)(=O)c1c(C)cc(C)cc1C` [Compound 347], `CCn1c(Oc2ccc3cc[nH]c3c2)nnc1[C@@H](C)NS(=O)(=O)c1c(C)c(C)cc(C)c1C` [Compound 378] is higher in inhibition at 10 µM: 50.1% for the first, 71.6% for the second.

First: CCn1c(Oc2ccc3cc[nH]c3c2)nnc1[C@@H](C)NS(=O)(=O)c1ccc(OC)cc1 [Compound 348]
Second: CCn1c(Oc2ccc3cc[nH]c3c2)nnc1[C@@H](C)NS(=O)(=O)c1ccc(I)cc1 [Compound 355]
The inhibition at 10 µM of the first is higher: 109% for the first, 98.8% for the second.

Compared with `CCn1c(Oc2ccc3cc[nH]c3c2)nnc1[C@@H](C)NS(=O)(=O)c1ccc(S(C)(=O)=O)cc1` [Compound 350], `C=Cc1ccc(S(=O)(=O)N[C@H](C)c2nnc(Oc3ccc4cc[nH]c4c3)n2CC)cc1` [Compound 363] is higher in inhibition at 10 µM: 75% for the first, 96.2% for the second.

Compared with `CCn1c(Oc2ccc3cc[nH]c3c2)nnc1[C@@H](C)NS(=O)(=O)CCc1cccc2ccccc12` [Compound 353], `CCn1c(Oc2ccc3cc[nH]c3c2)nnc1[C@@H](C)NS(=O)(=O)/C=C/c1ccccc1` [Compound 356] is higher in inhibition at 10 µM: 92.3% for the first, 95.6% for the second.

Compared with `CCn1c(Oc2ccc3cc[nH]c3c2)nnc1[C@@H](C)NS(=O)(=O)c1cc(Cl)c(Cl)cc1Cl` [Compound 357], `CCn1c(Oc2ccc3cc[nH]c3c2)nnc1[C@@H](C)NS(=O)(=O)c1cc(Cl)cc(Cl)c1` [Compound 383] is lower in inhibition at 10 µM: 106% for the first, 83.6% for the second.

Compared with `CCn1c(Oc2ccc3cc[nH]c3c2)nnc1[C@@H](C)NS(=O)(=O)c1ccc(OC(F)(F)F)cc1` [Compound 362], `CCn1c(Oc2ccc3cc[nH]c3c2)nnc1[C@@H](C)NS(=O)(=O)c1ccc(F)c(Cl)c1` [Compound 385] is higher in inhibition at 10 µM: 95.1% for the first, 98% for the second.

Compared with `CCn1c(Oc2ccc3cc[nH]c3c2)nnc1[C@@H](C)NS(=O)(=O)c1ccc2c(c1)CN(C(=O)C(F)(F)F)CC2` [Compound 366], `CCn1c(Oc2ccc3cc[nH]c3c2)nnc1[C@@H](C)NS(=O)(=O)c1ccc(Br)c(Br)c1` [Compound 392] is higher in inhibition at 10 µM: 63.2% for the first, 73.6% for the second.

First: CCn1c(Oc2ccc3cc[nH]c3c2)nnc1[C@@H](C)NS(=O)(=O)c1ccc(-c2csnn2)s1 [Compound 368]
Second: CCn1c(Oc2ccc3cc[nH]c3c2)nnc1[C@@H](C)NS(=O)(=O)c1cccc(Cl)c1C [Compound 384]
The inhibition at 10 µM of the first is lower: 60.5% for the first, 88.1% for the second.

Going from `CCn1c(Oc2ccc3cc[nH]c3c2)nnc1[C@@H](C)NS(=O)(=O)c1ccc(C(=O)OC)n1C` [Compound 372] to `CCn1c(Oc2ccc3cc[nH]c3c2)nnc1[C@@H](C)NS(=O)(=O)c1cc(F)ccc1C` [Compound 390], the inhibition at 10 µM falls from 106% to 65.9%.

Going from `CCn1c(Oc2ccc3cc[nH]c3c2)nnc1[C@@H](C)NS(=O)(=O)c1cc(C(F)(F)F)cc(C(F)(F)F)c1` [Compound 382] to `CCn1c(Oc2ccc3cc[nH]c3c2)nnc1[C@@H](C)NS(=O)(=O)c1cc(F)c(Br)cc1F` [Compound 387], the inhibition at 10 µM falls from 66.9% to 63.5%.

First: CCn1c(Oc2ccc3cc[nH]c3c2)nnc1[C@@H](C)NS(=O)(=O)c1c(C)cc(OC)c(C)c1C [Compound 388]
Second: CCn1c(Oc2ccc3cc[nH]c3c2)nnc1[C@@H](C)NS(=O)(=O)c1c(C)c(C)c(C)c(C)c1C [Compound 391]
The inhibition at 10 µM of the first is lower: 65.8% for the first, 80.4% for the second.

Reference: patent publication US8022091B2, “Triazole derivative” (Taisho Pharmaceutical Co., Ltd., priority 2006, dated 2011)
